Patent US20130310356A1, “METHOD FOR TREATING BRAIN CANCER” (Niiki Pharma Acquisition Corp. 2, priority 2010, published 2013)
Blank lines part the entries; values can stand above or below the compound they belong to.

Tests used:
[1] = test system: human glioblastoma cell line U251; assay: ATCC MTT Cell Proliferation Assay, U251; format: cell-based; conditions: U251, 72 hours treatment
Protocol: Tris(8-quinolinolato)gallium(III) and temozolomide were tested in human glioblastoma cell line U251 (which is resistant to BCNU, See Beljanski et al., Anticancer Res., 13(6A):2301-8 (1993)). Specifically, ATCC's MTT Cell Proliferation Assay® was performed using glioblastoma cell line U251. Stock cultures were allowed to grow to 70-80% confluence for this study. The anti-proliferative activity of tris(8-quinolinolato)gallium(III) or temozolomide against the cell line was evaluated in vitro using the ATCC's MTT Cell Proliferation Assay (Catalog No. 30-1010K). Cultures were maintained in a 37° C. humidified 5% CO2/95% air atmosphere. The cells were treated with tris(8-quinolinolato)gallium(III) or temozolomide at 1,000 μM, or a series of 4x dilutions thereof (250 μM, 62.5 μM, etc.). 100 μl of medium was removed from each well at 72 hours post-treatment and 10 μl MTT reagent was added to each well. The plates were incubated at 37° C. for 4 hours and then 100 μl of detergent was added. The plates were left overnight at room temperature in the dark and was read on a plate reader using SoftMax® Pro (version 5.2, Molecular Devices).
The absorbance data was analyzed as follows: Absorbance values were converted to Percent of Control and plotted against test agent concentrations for IC50 calculations using SoftMax® Pro (version 5.2, Molecular Devices). The plate blank signal average was subtracted from all wells prior to calculating the Percent of Control. Percent of Control values were calculated by dividing the absorbance values for each test well by the No Drug Control average (column 11 values; cells +vehicle control) and multiplying by 100. Plots of Compound Concentration versus Percent of Control were analyzed using the 4-parameter equation to obtain IC50 values and other parameters that describe the sigmoidal dose response curve.
The IC50 value for the test agent was estimated by curve-fitting the data using the following four parameter-logistic equation: […]

[2] = test system: T98G; conditions: cited from earlier work
[3] = test system: U87; conditions: cited from earlier work
[4] = test system: U373; conditions: cited from earlier work
[5] = test system: ACHU; assay: MTT assay, glioblastoma cell line ACHU; format: cell-based; conditions: drug incubated 3 hours, MTT 72 hours after initial incubation
Protocol: (§1) To test the activities of tris(8-quinolinolato)gallium(III) (“drug”), MTT assays were performed using glioblastoma cell lines. Cells were plated (2×10^3 cells in 100 μl/well) in 96-well plates and allowed to recover for 24 hours. The drug was added in another 100 μl growth medium and incubated with cultured cells for 3 hours before the cell culture medium was replaced to remove the drug. Cell death was measured 72 hours after the initial incubation by MTT assay following the manufacturer's recommendations (EZ4U, Biomedica, Vienna, Austria).

[6] = test system: T98G; assay: MTT assay, glioblastoma cell line T98G; format: cell-based
Protocol: as §1

[7] = test system: U87; assay: MTT assay, glioblastoma cell line U87; format: cell-based
Protocol: as §1

[8] = test system: U373; assay: MTT assay, glioblastoma cell line U373; format: cell-based; conditions: drug incubated 3 hours, MTT 72 hours after initial incubation
Protocol: as §1

[9] = test system: glioma cell line U87; assay: 3-dimentional tumor model (HuBiogel), MTT assay and Calcein AM live-cell staining; format: cell-based
Protocol: The compound tris(8-quinolinolato)gallium(III) was tested in a 3-dimentional tumor model derived from glioma cell line U87. Specifically, cells were trypsinized, washed, counted by trypan blue exclusion. Tumor beads were then prepared by mixing 20,000 cells/10 μl of HuBiogel (4 mg/mL) (See U.S. patent application Ser. No. 10/546,506, which is incorporated herein by reference). The 3-D tumor beads were cultivated for 72 hours in multi-well plates with complete media (10% FBS) in a 37° C. incubator +5% CO2. Mini-tumors were treated with various concentrations of the test compound tris(8-quinolinolato)gallium(III) in media (final 0.2-0.3% DMSO) or control (DMSO). Repeated drug treatment was done by removing the culture media and replacing with fresh media with drug compound or DMSO. On Day 3, MTT assay and live-cell staining with Calcein AM were performed (5 beads/assay set).
Statistical analysis of data sets (Average, T-test, GI-50) was performed using MS-Excel program. The average GI-50 (the drug concentration required for growth inhibition at 50%) is 0.94 μM.

Structure (SMILES): O=NN(CCCl)C(=O)NCCCl [BCNU]
- IC50 [1]: 53.7 µM
- BCNU (% cytostasis with 50 μg/ml BCNU) [2]: 37.5 ± 8.6%
- BCNU (% cytostasis with 50 μg/ml BCNU) [3]: 18.5 ± 8.2%
- BCNU (% cytostasis with 50 μg/ml BCNU) [4]: 30.4 ± 8.6%

- IC50 ([1]; Homo sapiens, U-251): 283 µM
Structure (SMILES): Cn1nnc2c(C(N)=O)ncn2c1=O [temozolomide]

Structure (SMILES): [Ga+3].[O-]c1cccc2cccnc12.[O-]c1cccc2cccnc12.[O-]c1cccc2cccnc12 [tris(8-quinolinolato)gallium(III)]
- IC50 [5]: 0.3 µM
- IC50 ([6]; drug incubated 3 hours, MTT 72 hours after initial incubation): 2 µM
- activity in cells ([6]; resistant to temozolomide): active
- activity against cell line ([7]; U87, relatively resistant to BCNU): active
- IC50 ([7]; U87, drug incubated 3 hours, MTT 72 hours after initial incubation): 0.94 µM
- IC50 [8]: 2.5 µM
- GI50 ([9]; U87 3-D tumor beads in HuBiogel, MTT on Day 3, read-out: average GI-50 (drug concentration required for growth inhibition at 50%)): 0.94 µM
- tumor killing in live-cell staining/image analysis ([9]; U87 3-D tumor beads, Calcein AM, Day 3): dose-dependent tumor killing
- tumor proliferation activity ([9]; U87 3-D tumor beads, MTT, Day 3): significantly inhibited
- IC50 [1]: 4.04 µM
